Experimental data as given in patent US8242160B2, “Inhibitors of ubiquitin E1” (The United States of America, as represented by the …, priority 2005, dated 2012).

Tests used:
[1] = target: T1, His6-E1 (Homo sapiens, UniProt P22314); test: Bead immobilized His6-E1: wash-out and glutathione competition; assay type: biochemical
T1 sequence (P22314 1-1058): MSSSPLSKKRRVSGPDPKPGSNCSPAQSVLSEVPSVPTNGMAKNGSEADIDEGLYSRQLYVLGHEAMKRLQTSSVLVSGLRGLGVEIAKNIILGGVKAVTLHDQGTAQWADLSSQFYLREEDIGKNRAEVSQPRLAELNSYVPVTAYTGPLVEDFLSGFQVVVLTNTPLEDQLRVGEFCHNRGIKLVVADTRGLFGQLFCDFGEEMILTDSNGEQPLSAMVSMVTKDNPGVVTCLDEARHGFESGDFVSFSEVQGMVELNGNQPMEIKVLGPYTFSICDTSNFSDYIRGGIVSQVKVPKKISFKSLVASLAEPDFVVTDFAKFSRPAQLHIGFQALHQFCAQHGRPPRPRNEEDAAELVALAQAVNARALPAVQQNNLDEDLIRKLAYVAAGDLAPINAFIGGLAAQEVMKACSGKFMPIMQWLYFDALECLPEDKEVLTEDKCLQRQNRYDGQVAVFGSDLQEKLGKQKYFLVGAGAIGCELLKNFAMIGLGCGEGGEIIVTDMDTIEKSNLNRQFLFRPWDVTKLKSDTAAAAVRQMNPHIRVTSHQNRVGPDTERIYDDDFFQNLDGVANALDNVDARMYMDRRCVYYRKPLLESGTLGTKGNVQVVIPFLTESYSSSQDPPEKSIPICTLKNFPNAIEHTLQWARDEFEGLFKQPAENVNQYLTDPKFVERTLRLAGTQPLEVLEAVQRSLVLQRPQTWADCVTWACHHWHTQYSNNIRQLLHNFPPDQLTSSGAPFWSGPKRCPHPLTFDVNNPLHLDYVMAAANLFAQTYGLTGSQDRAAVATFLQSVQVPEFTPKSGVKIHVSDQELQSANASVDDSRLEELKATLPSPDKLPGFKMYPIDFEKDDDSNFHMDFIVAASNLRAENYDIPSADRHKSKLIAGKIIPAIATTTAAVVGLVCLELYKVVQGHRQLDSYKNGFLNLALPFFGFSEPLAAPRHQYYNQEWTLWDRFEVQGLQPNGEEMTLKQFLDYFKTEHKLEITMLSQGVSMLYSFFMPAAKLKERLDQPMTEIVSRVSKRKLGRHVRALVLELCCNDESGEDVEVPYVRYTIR
Protocol: Bead immobilized His6-E1 was treated with E1 inhibitor 4-[4-(5-nitro-furan-2-ylmethylene)-3,5-dioxo-pyrazolidin-1-yl]-benzoic acid methyl acid (E1 41) at a range of concentrations (0-50 μm) as indicated in FIG. 9A. The beads were subjected to wash (+wash) or no wash (−wash) conditions.
The ability of a compound to inhibit E1 activity may come from the ability of the compound to interfere with the formation of thiolester linkages between ubiquitin and E1. Next, the biological activity of E1 41 was tested to examine if it can be inhibited or prevented by treatment with an excess of reduced glutathione. […] Thus, E1 41 can act as a target for nucleophilic attack by active site thiol of E1 (e.g., a central double bond of a compound can serve as Michael-acceptor for the nucleophilic thiol in a Michael-type reaction).

[2] = test system: MEFs from p53-deficient mice; test: Killing of MEFs from p53-deficient mice; assay type: cell-based, mouse
Source text: While p53 induces apoptotic cell death in many tumor cells, it generally only induces growth arrest in untransformed cells. This has been the rationale for many studies targeting the p53 system.

[3] = target: T2, Rabbit E1 (Oryctolagus cuniculus, UniProt Q29504); test: E1 only assay: thiolester linkage between 32P-labeled ubiquitin and E1; assay type: biochemical; settings: gel-based assay with 32P-labeled ubiquitin; stated after block of E1-ubiquitin thiolester formation (FIG. 1B)
T2 construct: purchased Calbiochem #6620700
T2 sequence (Q29504 1-1058): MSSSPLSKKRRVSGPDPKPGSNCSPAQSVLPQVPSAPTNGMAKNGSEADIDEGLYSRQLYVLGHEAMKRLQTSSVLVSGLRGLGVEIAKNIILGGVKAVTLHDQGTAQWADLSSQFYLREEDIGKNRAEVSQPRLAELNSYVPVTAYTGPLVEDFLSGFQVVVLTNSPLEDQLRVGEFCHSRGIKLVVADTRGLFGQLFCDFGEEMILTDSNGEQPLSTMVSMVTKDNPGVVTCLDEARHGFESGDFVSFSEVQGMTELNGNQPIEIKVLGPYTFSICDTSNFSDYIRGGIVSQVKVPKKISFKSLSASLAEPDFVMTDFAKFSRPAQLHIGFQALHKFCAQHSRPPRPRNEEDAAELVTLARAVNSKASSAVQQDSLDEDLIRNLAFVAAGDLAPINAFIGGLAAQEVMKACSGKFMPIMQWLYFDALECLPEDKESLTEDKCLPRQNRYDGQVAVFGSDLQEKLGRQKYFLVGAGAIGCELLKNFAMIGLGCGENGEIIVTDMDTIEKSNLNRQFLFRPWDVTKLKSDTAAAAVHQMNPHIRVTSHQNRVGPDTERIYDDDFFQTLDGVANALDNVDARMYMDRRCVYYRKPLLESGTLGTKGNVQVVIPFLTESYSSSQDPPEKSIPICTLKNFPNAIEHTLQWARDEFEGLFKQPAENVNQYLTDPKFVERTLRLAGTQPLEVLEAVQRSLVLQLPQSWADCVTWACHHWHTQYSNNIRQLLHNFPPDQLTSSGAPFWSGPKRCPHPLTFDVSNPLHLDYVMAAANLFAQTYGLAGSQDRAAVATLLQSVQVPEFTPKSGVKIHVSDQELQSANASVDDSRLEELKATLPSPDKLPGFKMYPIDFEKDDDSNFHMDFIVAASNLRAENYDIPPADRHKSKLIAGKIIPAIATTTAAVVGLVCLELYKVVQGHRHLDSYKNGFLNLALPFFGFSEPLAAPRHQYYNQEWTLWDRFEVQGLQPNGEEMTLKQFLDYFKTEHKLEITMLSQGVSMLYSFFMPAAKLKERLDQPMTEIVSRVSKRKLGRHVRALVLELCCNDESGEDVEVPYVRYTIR
Protocol: Since Mdm2 autoubiquitination depends on the activity of E1 and E2, some of these might act by inhibiting E1. In fact, some did block the formation of thiolester linkages between ^32P-labeled ubiquitin and E1 (FIG. 1B). The compound 4-[4-(5-nitro-furan-2-ylmethylene)-3,5-dioxo-pyrazolidin-1-yl]-benzoic acid methyl acid was active at a concentration of 20-50 μM.
b. “E1 Only” Assay. • 2 μl rabbit E1+12 μl of 1× reaction buffer are mixed together with the test compound followed by addition of 1 μl of ^32P Ub. After incubating for 10 minutes at room temperature, the samples are denatured using loading buffer without reducing agent and subjected to SDS-PAGE under non-reducing conditions to maintain thiol-ester linkages and exposure as above.

removal of compound from E1 by washing ([1]; 0-50 μm, wash versus no wash): cannot be washed away
concentration at which the compound was active [3]: 20 to 50 µM
Structure (SMILES): COC(=O)c1ccc(N2NC(=O)/C(=C/c3ccc([N+](=O)[O-])o3)C2=O)cc1 [E1-41, 4-[4-(5-nitro-furan-2-ylmethylene)-3,5-dioxo-pyrazolidin-1-yl]-benzoic acid methyl acid]
effect of reduced glutathione on the inhibitory action on E1 ([1]; 50 μM compound, GSH 0.1-10 mM): can be prevented by the addition of reduced glutathione (GSH) in a dose-dependent manner
killing of MEFs from p53-deficient mice [2]: relatively resistant
